Data published in patent US8445441B2, “Inhibitors of BCL-2” (Case Western Reserve University, priority 2007, dated 2013).

Key:
Bcl-2-IP3R interaction [1] = molecular target: T1, Bcl-2-IP3R interaction (Homo sapiens, UniProt P10415); experiment: coimmunoprecipitation of Bcl-2 with IP3R from cell extracts; assay type: binding; design: expressed in transfected cells; host or cells: Bcl-2(+) WEHI7.2 cells; also Jurkat cells (endogenous Bcl-2); details: 400 μM peptide; Bcl-2(+) WEHI7.2 and Jurkat cell extracts
T1 sequence (P10415 whole entry): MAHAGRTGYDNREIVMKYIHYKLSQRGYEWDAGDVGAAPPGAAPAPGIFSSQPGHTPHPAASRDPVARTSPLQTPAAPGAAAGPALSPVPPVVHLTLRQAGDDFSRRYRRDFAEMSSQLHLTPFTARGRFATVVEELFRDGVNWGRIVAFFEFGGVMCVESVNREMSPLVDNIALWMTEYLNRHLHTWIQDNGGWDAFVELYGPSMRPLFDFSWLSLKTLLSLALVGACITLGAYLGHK
Description: FIG. 4 illustrates an IP3R Peptide Inhibits Bcl-2-IP3R Interaction but Not Bim-Bcl-2 Interaction. (A and D) IP3R was immunoprecipitated from extracts of Bcl-2(+) WEHI7.2 cells (C) or Jurkat cells in the presence of 400 μM peptides. Peptide 2, but not peptide 1 or control peptide, inhibited the Bcl-2-IP3R coimmunoprecipitation. Summary of Bcl-2 immunoblot signal intensities in three […] experiments identical to (C) (mean±SEM). (B) Bcl-2 was immunoprecipitated from Bcl-2(+) WEHI7.2 cell extracts in the presence of 400 μM peptides, and coimmunoprecipitation of Bim was detected by anti-Bim immunoblotting. […] (E) Summary of Bim immunoblot signal intensities in three experiments identical to (B) (mean±SEM).
Since the IP3R binding region was narrowed down to the 80 amino acid subdomain 3a1 (aa 1347-1426), we designed two 20 amino acid peptides (peptide 1, aa 1365-1384 (SEQ ID NO:2); peptide 2, aa 1389-1408 (SEQ ID NO:3)) based on the degree of homology in this region among different IP3R isoforms. […] The inhibitory effect of peptide 2 on Bcl-2-IP3R interaction was also detected in coimmunoprecipitation assays employing both Bcl-2(+) WEHI7.2 cells (FIGS. 4A and 4B) and Jurkat cells (FIG. 4C). […]

Jurkat cells [2] = experiment: IP3 ester-induced Ca2+ elevation; assay type: cell-based; details: D-myo InsP3 hexakisbutyryloxymethyl ester
Excerpt: To exclude the possibility that peptide 2 may interfere with the upstream TCR activation pathway, a cell-permeant IP3 ester (D-myo InsP3 hexakisbutyryloxymethyl ester) was used to bypass TCR activation and anti-CD3-induced IP3 generation.

Jurkat cells [3] = experiment: anti-CD3-induced apoptosis (apoptotic nuclei); assay type: cell-based
Description: FIG. 7 illustrates peptide 2 Enhances Anti-CD3-Induced Apoptosis in Bcl-2-Positive Cells (A) Typical apoptotic nuclear morphology (arrow, Hoechst 33342 stain) 24 hr after 5 μg/ml anti-CD3 treatment of Jurkat cells. Scale bars, 10 μm. (B) Bcl-2(−) and Bcl-2(+) WEHI7.2 cells were pre-incubated±60 μM peptides plus Chariot reagent and then incubated with 20 μg/ml anti-CD3 for 24 hr. Symbols represent the percentage of cells (mean±SEM) with apoptotic nuclei in three experiments for Bcl-2(−) and five experiments for Bcl-2(+) cells (200 cells counted per coverslip). (C) Jurkat cells were pre-incubated±60 μM peptides±Chariot reagent and then incubated with 5 μg/ml anti-CD3 for 24 hr. Symbols represent the percentage of cells (mean±SEM) with apoptotic nuclei in five experiments (240 cells counted per coverslip).
Peptide 2 also attenuated Bcl-2's inhibition of anti-CD3-induced apoptosis in Jurkat cells. In preliminary studies (data not shown), we tested several anti-CD3 concentrations. Higher concentrations of anti-CD3 induced high levels of apoptosis that might obscure the effect of the peptide. We therefore used 5 μg/ml anti-CD3, sufficient to induce 20%-30% apoptosis.

Jurkat cells [4] = experiment: Fas-induced Ca2+-independent apoptosis; assay type: cell-based
[5] = test system: primary chronic lymphocytic leukemia cells; experiment: cell killing by trypan blue dye exclusion, combination with ABT737; assay type: cell-based; details: primary CLL cells, peptide combined with ABT737, 24 hours
Excerpt: FIG. 10 illustrates a graph comparing the cell death percentage of chronic lymphocytic leukemia cells treated with combinations of ABT-737 and a peptide comprising SEQ ID NO: 3 and controls.
FIG. 11 illustrates a graph comparing the cell death percentage of chronic lymphocytic leukemia cells treated with ABT-737, a peptide comprising SEQ ID NO: 3, combinations thereof, and controls.
To test this hypothesis, we performed the experiments summarized below. […] Additions were made to CLL cells and cell death measured 24 hours later.

Bcl-2-IP3R interaction [6] = molecular target: T1, Bcl-2-IP3R interaction; experiment: GST pull-down of Bcl-2 from Bcl-2(+) WEHI7.2 extracts with GST-IP3R domain 3; assay type: binding, mouse; design: expressed in transfected cells; host or cells: Bcl-2(+) WEHI7.2 cells (source of Bcl-2)
Excerpt: To identify where Bcl-2 interacts on the IP3R, we used a series of GST-IP3R fusion constructs corresponding to five fragments covering the first N-terminal 2216 amino acids and 1 fragment corresponding to the last 160 amino acids of mouse IP3R type 1 (FIG. 3). These fragments are located in the cytoplasm and coincide with “natural” domains generated by limited proteolysis. The transmembrane domain was not included. After purification, fragments migrated as single prominent bands corresponding to their expected molecular weights, although some minor degradation products were detected.
The first set of GST pull-down experiments utilized extracts of Bcl-2(+) WEHI7.2 cells and Jurkat cells as two independent sources of Bcl-2. Cell extracts were incubated with GST-IP3R fragments prebound to glutathione sepharose resin, with equal loading of the GST-IP3R fragments. […] These experiments were repeated a total of five times with the same result. It is important to note that, following incubation of cell extracts with GST-IP3R fragments on the glutathione sepharose resin, the resin was washed extensively.
Since the IP3R binding region was narrowed down to the 80 amino acid subdomain 3a1 (aa 1347-1426), we designed two 20 amino acid peptides (peptide 1, aa 1365-1384 (SEQ ID NO:2); peptide 2, aa 1389-1408 (SEQ ID NO:3)) based on the degree of homology in this region among different IP3R isoforms. Also, preference was given to regions that have beta-turn and/or α-helical structures, rather than random-coil or nonstructured sequences, expecting that one or both of the peptides could inhibit the Bcl-2-IP3R interaction. Furthermore, the C-terminal region of domain 3a1 was not selected because of its lower accessibility and unpredictable secondary structure (Invitrogen PeptideSelect Design Tool). The scrambled sequence of peptide 2 was also synthesized and used as a control. […] The inhibitory effect of peptide 2 on Bcl-2-IP3R interaction was also detected in coimmunoprecipitation assays employing both Bcl-2(+) WEHI7.2 cells (FIGS. 4A and 4B) and Jurkat cells (FIG. 4C). […]

Sequence: NVYTEIKCNSLLPLDDIVRV (listed as Homo sapiens) [peptide 2, 20 amino acid peptide, aa 1389-1408 of IP3R subdomain 3a1]
- inhibition of Bcl-2-IP3R coimmunoprecipitation (Bcl-2-IP3R interaction [1]): consistently inhibited
- IP3 ester-induced Ca2+ elevation (Jurkat cells [2]): enhanced
- anti-CD3-induced apoptosis (percentage of apoptotic cells) (Jurkat cells [3]; 60 μM peptide with Chariot, 5 μg/ml anti-CD3, 24 hr, anti-CD3 alone 20%-30%): 40%-45%
- effect on anti-CD3-induced apoptosis (Jurkat cells [3]; peptide in the absence of Chariot reagent): did not have an effect
- enhancement of Fas-induced Ca2+-independent apoptosis (Jurkat cells [4]): did not enhance
- cell death induction by ABT737 [5]: enhances cell death induction
- amount of Bcl-2 bound to GST-IP3R domain 3 (Bcl-2-IP3R interaction [6]; 200 μM peptide): significantly decreased
- amount of Bcl-2 bound to GST-IP3R domain 3 (Bcl-2-IP3R interaction [6]; 1 mM peptide): significantly decreased
